Numbered stars: 1 amine (or outer) side, 2 acyl side, 3 side chain; on linkers, the order of the positions; unused ones are H or OH. Bridge positions count the residues as written; N and C are the ends. Square brackets hold non-standard residues; d marks the D form. Peptide text beside a SMILES is read from it. * marks the point of attachment. C20 diacid = O=C(O)CCCCCCCCCCCCCCCCCCC(=O)*; γGlu = O=C(O)[C@H](CCC(=O)[*:2])N[*:1]; Hyp = O=C(O)[C@@H]1C[C@@H](O)CN1; NMeI = CC[C@H](C)[C@H](NC)C(=O)O; Aad = N[C@@H](CCCC(=O)O)C(=O)O; Orn = NCCC[C@H](N)C(=O)O; Sar = CNCC(=O)O
What was measured:
[1] = biological target: T1, recombinant human calcitonin receptor (hCT-R) (Homo sapiens, UniProt P30988); test: hCT-R cAMP assay (AlphaScreen) in 1321N1 cells; assay type: cell-based; details: cAMP formation, 45 min stimulation
T1 construct: host or cells: human astrocytoma cell line 1321N1
T1 sequence (P30988 25-474): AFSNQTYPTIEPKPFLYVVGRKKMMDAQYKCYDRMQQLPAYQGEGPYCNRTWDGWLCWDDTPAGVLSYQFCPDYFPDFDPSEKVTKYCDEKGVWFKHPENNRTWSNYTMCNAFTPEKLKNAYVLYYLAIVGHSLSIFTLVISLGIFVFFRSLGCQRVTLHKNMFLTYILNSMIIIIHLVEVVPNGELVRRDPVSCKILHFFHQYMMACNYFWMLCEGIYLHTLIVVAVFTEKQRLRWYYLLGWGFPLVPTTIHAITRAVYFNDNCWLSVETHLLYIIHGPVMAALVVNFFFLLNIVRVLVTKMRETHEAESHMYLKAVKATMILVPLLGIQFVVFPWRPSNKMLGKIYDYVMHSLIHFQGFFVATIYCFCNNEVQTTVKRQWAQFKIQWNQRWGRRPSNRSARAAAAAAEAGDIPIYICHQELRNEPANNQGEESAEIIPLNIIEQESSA
How it was run: (§1)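 1321N1 astrocytoma cells expressing recombinant human calcitonin receptor alone or with RAMP3 (AMY3) stimulated 45 min at room temperature with peptide in IBMX-containing buffer. cAMP quantified by AlphaScreen after 1 h bead incubation; EC50 fitted from at least 7 concentrations.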

[2] = Assessment of physical stability: fibril formation by Thioflavin T fluorescence; assay type: physicochemical; set-up: key: FND = fibrillation not detected; FD = fibrillation detected; details: 1 mg/mL peptide; for Fibrillation (in buffer) pH4 acetate: 50 mM acetate buffer pH 4.0, 96 hours at 40° C.; for Fibrillation (in buffer) pH7 histidine: 50 mM histidine buffer pH 7.0, 96 hours at 40° C.; for Fibrillation (in buffer) pH7 phosphate: 50 mM phosphate buffer pH 7.0, 96 hours at 40° C.
How it was run: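 Test peptide at 1 mg/mL with 40 μM ThT in 50 mM phosphate pH 7.0, 50 mM histidine pH 7.0, or 50 mM acetate pH 4.0, in triplicate. Fluorescence read every 10 min after 300 s agitation for 96 hours at 40° C; significant intensity rise scored as fibrillation detected (FD).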

[3] = Assessment of chemical stability in 40 mM buffers at 40° C. (RP-HPLC); assay type: physicochemical; details: 1 mg/mL; for % degradation after 72 h at 40° C. pH4 acetate: acetate buffer pH 4, 72 h; for % degradation after 72 h at 40° C. pH6 phosphate: phosphate buffer pH 6, 72 h; for % degradation after 72 h at 40° C. pH7 phosphate: phosphate buffer pH 7, 72 h
How it was run: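 Peptides at 1 mg/mL in 40 mM acetate pH 4 or phosphate pH 6 and 7 were held at 40° C for 3 and 14 days. Main-peak area-% by C8 RP-HPLC, UV 220 nm; % degradation = change in main-peak area-% versus t=0.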

[4] = biological target: T2, recombinant human amylin 3 receptor (hAMYR3) (Homo sapiens, UniProt O60896+P30988); test: hAMYR3 cAMP assay (AlphaScreen) in 1321N1 cells; assay type: cell-based; details: cAMP formation, 45 min stimulation
T2 construct: host or cells: human astrocytoma cell line 1321N1
T2 sequence (P30988 25-474): T1 sequence (P30988 25-474)
T2 sequence (O60896 24-148 partner): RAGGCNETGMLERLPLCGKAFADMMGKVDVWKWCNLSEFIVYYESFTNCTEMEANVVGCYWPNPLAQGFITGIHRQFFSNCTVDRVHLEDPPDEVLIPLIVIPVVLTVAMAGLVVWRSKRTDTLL
How it was run: as §1

Row | Structure (SMILES) | EC50 [1] [nM] | Fibrillation (in buffer) pH4 acetate [2] | Fibrillation (in buffer) pH7 histidine [2] | Fibrillation (in buffer) pH7 phosphate [2] | % degradation after 72 h at 40° C. pH4 acetate [3] [%] | % degradation after 72 h at 40° C. pH6 phosphate [3] [%] | % degradation after 72 h at 40° C. pH7 phosphate [3] [%] | EC50 [4] [nM] | % degradation after 14 days at 40° C. pH4 acetate ([3]; acetate buffer pH 4, 14 days) [%] | % degradation after 14 days at 40° C. pH6 phosphate ([3]; phosphate buffer pH 6, 14 days) [%] | % degradation after 14 days at 40° C. pH7 phosphate ([3]; phosphate buffer pH 7, 14 days) [%]
1 | CC[C@H](C)[C@@H](C(=O)N1CCC[C@H]1C(=O)N[C@@H](CO)C(=O)N[C@@H](CO)C(=O)N[C@H](C(=O)N[C@@H](CCC(=O)O)C(=O)N[C@H](C(=O)NCC(=O)N[C@@H](CO)C(=O)N[C@@H](CC(N)=O)C(=O)N[C@H](C(=O)N1C[C@H](O)C[C@H]1C(N)=O)[C@@H](C)O)C(C)C)[C@@H](C)O)N(C)C(=O)[C@H](C)NC(=O)CN(C)C(=O)[C@H](Cc1ccccc1)NC(=O)[C@H](CO)NC(=O)[C@H](CO)NC(=O)[C@H](CCCNC(=N)N)NC(=O)[C@H](CCC(N)=O)NC(=O)[C@H](CC(C)C)NC(=O)[C@H](Cc1ccccc1)NC(=O)[C@H](Cc1c[nH]cn1)NC(=O)[C@H](C)NC(=O)[C@H](CC(C)C)NC(=O)[C@H](CCCNC(=N)N)NC(=O)[C@H](CCC(=O)O)NC(=O)[C@@H](NC(=O)[C@H](C)NC(=O)[C@@H]1CCCCNC(=O)C[C@H](NC(=O)[C@H](CCCNC(=N)N)NC(=O)CC[C@H](NC(=O)CCCCCCCCCCCCCCCCCCC(=O)O)C(=O)O)C(=O)NCC(=O)N[C@@H]([C@@H](C)O)C(=O)N[C@@H](C)C(=O)N[C@@H]([C@@H](C)O)C(=O)N1)[C@@H](C)O [Compound 17, [19CD]-isoGlu-RD()GTATK()ATERLAHFLQRSSF-Gly(Me)-A-Ile(Me)-PSSTEVGSNT-Hyp-NH2] ({C20 diacid-γGlu}-RDGTATKATERLAHFLQRSSF[Sar]A[NMeI]PSSTEVGSNT[Hyp]-NH2; lactam 2-7) | 0.058 | FND | FND | FND | 1.2 | <1 | <1 | 0.025 |  |  | 
2 | CC[C@H](C)[C@@H](C(=O)N[C@@H](CC(C)C)C(=O)N[C@@H](CO)C(=O)N[C@@H](CO)C(=O)N[C@H](C(=O)N[C@@H](CCC(=O)O)C(=O)N[C@H](C(=O)NCC(=O)N[C@@H](CO)C(=O)N[C@@H](CC(N)=O)C(=O)N[C@H](C(=O)N1C[C@H](O)C[C@H]1C(N)=O)[C@@H](C)O)C(C)C)[C@@H](C)O)N(C)C(=O)[C@H](C)NC(=O)CN(C)C(=O)[C@H](Cc1ccccc1)NC(=O)[C@H](CO)NC(=O)[C@H](CO)NC(=O)[C@H](CCCNC(=N)N)NC(=O)[C@H](CCC(N)=O)NC(=O)[C@H](CC(C)C)NC(=O)[C@H](Cc1ccccc1)NC(=O)[C@H](Cc1c[nH]cn1)NC(=O)[C@H](C)NC(=O)[C@H](CC(C)C)NC(=O)[C@H](CCCNC(=N)N)NC(=O)[C@H](CCC(=O)O)NC(=O)[C@@H](NC(=O)[C@H](C)NC(=O)[C@@H]1CCCCNC(=O)C[C@H](NC(=O)[C@H](CCC(=O)O)NC(=O)CC[C@H](NC(=O)CCCCCCCCCCCCCCCCCCC(=O)O)C(=O)O)C(=O)NCC(=O)N[C@@H]([C@@H](C)O)C(=O)N[C@@H](C)C(=O)N[C@@H]([C@@H](C)O)C(=O)N1)[C@@H](C)O [Compound 11, [19CD]-isoGlu-ED()GTATK()ATERLAHFLQRSSF-Gly(Me)-A-Ile(Me)-LSSTEVGSNT-Hyp-NH2] ({C20 diacid-γGlu}-EDGTATKATERLAHFLQRSSF[Sar]A[NMeI]LSSTEVGSNT[Hyp]-NH2; lactam 2-7) | 0.068 | FND | FND | FND | <1 | <1 | <1 | 0.024 |  |  | 
3 | CC[C@H](C)[C@@H](C(=O)N[C@@H](CC(C)C)C(=O)N[C@@H](CO)C(=O)N[C@@H](CO)C(=O)N[C@H](C(=O)N[C@@H](CCC(=O)O)C(=O)N[C@H](C(=O)NCC(=O)N[C@@H](CO)C(=O)N[C@@H](CC(N)=O)C(=O)N[C@H](C(=O)N1C[C@H](O)C[C@H]1C(N)=O)[C@@H](C)O)C(C)C)[C@@H](C)O)N(C)C(=O)[C@H](C)NC(=O)CN(C)C(=O)[C@H](Cc1ccccc1)NC(=O)[C@H](CO)NC(=O)[C@H](CO)NC(=O)[C@H](CCCNC(=N)N)NC(=O)[C@H](CCC(N)=O)NC(=O)[C@H](CC(C)C)NC(=O)[C@H](Cc1ccccc1)NC(=O)[C@H](CCCNC(=N)N)NC(=O)[C@H](C)NC(=O)[C@H](CC(C)C)NC(=O)[C@H](CCCNC(=N)N)NC(=O)[C@H](CCC(=O)O)NC(=O)[C@@H](NC(=O)[C@H](C)NC(=O)[C@@H]1CCCNC(=O)C[C@H](NC(=O)[C@H](CCCNC(=N)N)NC(=O)CC[C@H](NC(=O)CCCCCCCCCCCCCCCCCCC(=O)O)C(=O)O)C(=O)NCC(=O)N[C@@H]([C@@H](C)O)C(=O)N[C@@H](C)C(=O)N[C@@H]([C@@H](C)O)C(=O)N1)[C@@H](C)O [Compound 10, [19CD]-isoGlu-RD()GTAT-Orn()-ATERLARFLQRSSF-Gly(Me)-A-Ile(Me)-LSSTEVGSNT-Hyp-NH2] ({C20 diacid-γGlu}-RDGTAT[Orn]ATERLARFLQRSSF[Sar]A[NMeI]LSSTEVGSNT[Hyp]-NH2; lactam 2-7) | 0.345 | FD | FND | FND | <1 | <1 | <1 | 0.068 | 1.9 | 1.8 | 9.1
4 | CC[C@H](C)[C@@H](C(=O)N[C@@H](CC(C)C)C(=O)N[C@@H](CO)C(=O)N[C@@H](CO)C(=O)N[C@H](C(=O)N[C@@H](CCC(=O)O)C(=O)N[C@H](C(=O)NCC(=O)N[C@@H](CO)C(=O)N[C@@H](CC(N)=O)C(=O)N[C@H](C(=O)N1C[C@H](O)C[C@H]1C(N)=O)[C@@H](C)O)C(C)C)[C@@H](C)O)N(C)C(=O)[C@H](C)NC(=O)CN(C)C(=O)[C@H](Cc1ccccc1)NC(=O)[C@@H](NC(=O)CNC(=O)[C@H](CCCNC(=N)N)NC(=O)[C@H](CCC(N)=O)NC(=O)[C@H](CC(C)C)NC(=O)[C@H](Cc1ccccc1)NC(=O)[C@H](CCCC(=O)O)NC(=O)[C@H](C)NC(=O)[C@H](CC(C)C)NC(=O)[C@H](CCCNC(=N)N)NC(=O)[C@H](CCC(=O)O)NC(=O)[C@@H](NC(=O)[C@H](C)NC(=O)[C@@H]1CCCNC(=O)C[C@H](NC(=O)[C@H](CCCNC(=N)N)NC(=O)CC[C@H](NC(=O)CCCCCCCCCCCCCCCCCCC(=O)O)C(=O)O)C(=O)NCC(=O)N[C@@H]([C@@H](C)O)C(=O)N[C@@H](C)C(=O)N[C@@H]([C@@H](C)O)C(=O)N1)[C@@H](C)O)[C@@H](C)O [Compound 27, [19CD]-isoGlu-RD()GTAT-Orn()-ATERLA-Aad-FLQRGTF-Gly(Me)-A-Ile(Me)-LSSTEVGSNT-Hyp-NH2] ({C20 diacid-γGlu}-RDGTAT[Orn]ATERLA[Aad]FLQRGTF[Sar]A[NMeI]LSSTEVGSNT[Hyp]-NH2; lactam 2-7) | 0.521 | FND | FND | FND | <1 | <1 | 1.7 | 0.325 |  |  | 

Source: patent publication US11382956B2, “Amylin analogues” (Zealand Pharma A/S, priority 2016, dated 2022)
